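Compound exposure: 48 hours, 5 concentrations, 96-well plates. At the GI50, growth is halved.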 Calls of active or inactive are those of the source. Rule as the data show it: active = GI50 up to about 1.1 µM and inactive = higher.
Assays:
Assay in all cases: NCI anticancer screen, dose series, 48 h
786-0 = tested on: 786-0
A498 = tested on: A498
A549 = tested on: A549
ACHN = tested on: ACHN
BT-549 = tested on: BT-549
CAKI-1 = tested on: CAKI-1
CCRF-CEM = tested on: CCRF-CEM
COLO 205 = tested on: COLO 205
DU-145 = tested on: DU-145
EKVX = tested on: EKVX
HCC 2998 = tested on: HCC 2998
HCT-116 = tested on: HCT-116
HCT-15 = tested on: HCT-15
HL-60 = tested on: HL-60
HOP-62 = tested on: HOP-62
HOP-92 = tested on: HOP-92
HT-29 = tested on: HT-29
Hs-578T = tested on: Hs-578T
IGROV-1 = tested on: IGROV-1
K562 = tested on: K562
KM12 = tested on: KM12
LOX IMVI = tested on: LOX IMVI
M14 = tested on: M14
MCF7 = tested on: MCF7
MDA-MB-231 = tested on: MDA-MB-231
MDA-MB-435 = tested on: MDA-MB-435
MDA-N = tested on: MDA-N
MOLT-4 = tested on: MOLT-4
Malme-3M = tested on: Malme-3M
NCI-H226 = tested on: NCI-H226
NCI-H23 = tested on: NCI-H23
NCI-H460 = tested on: NCI-H460
NCI-H522 = tested on: NCI-H522
NCI/ADR-RES = tested on: NCI/ADR-RES
OVCAR-3 = tested on: OVCAR-3
OVCAR-4 = tested on: OVCAR-4
OVCAR-5 = tested on: OVCAR-5
OVCAR-8 = tested on: OVCAR-8
RPMI-8226 = tested on: RPMI-8226
RXF 393 = tested on: RXF 393
SF-268 = tested on: SF-268
SF-295 = tested on: SF-295
SF-539 = tested on: SF-539
SK-MEL-28 = tested on: SK-MEL-28
SK-MEL-2 = tested on: SK-MEL-2
SK-MEL-5 = tested on: SK-MEL-5
SK-OV-3 = tested on: SK-OV-3
SN12C = tested on: SN12C
SNB-75 = tested on: SNB-75
SR = tested on: SR
SW-620 = tested on: SW-620
T47D = tested on: T47D
TK-10 = tested on: TK-10
U-251 = tested on: U-251
UACC-257 = tested on: UACC-257
UACC-62 = tested on: UACC-62
UO-31 = tested on: UO-31

S=C1NCCN1C(=S)NC1CCCCC1
GI50 (786-0): 37.9 µM (inactive)
GI50 (A498): 18.8 µM (inactive)
GI50 (A549): 27 µM (inactive)
GI50 (ACHN): 32.7 µM (inactive)
GI50 (BT-549): 21.4 µM (inactive)
GI50 (CAKI-1): 25.4 µM (inactive)
GI50 (CCRF-CEM): 45.2 µM (inactive)
GI50 (COLO 205): 27 µM (inactive)
GI50 (DU-145): 49.8 µM (inactive)
GI50 (EKVX): 29.1 µM (inactive)
GI50 (HCC 2998): 20.9 µM (inactive)
GI50 (HCT-116): 30.3 µM (inactive)
GI50 (HCT-15): 29 µM
GI50 (HL-60): 40.7 µM (inactive)
GI50 (HOP-62): 37.6 µM (inactive)
GI50 (HOP-92): 24.8 µM (inactive)
GI50 (HT-29): 21.8 µM (inactive)
GI50 (Hs-578T): 21.2 µM (inactive)
GI50 (IGROV-1): 68.1 µM (inactive)
GI50 (K562): 36.8 µM (inactive)
GI50 (KM12): 24.4 µM (inactive)
GI50 (LOX IMVI): 35.8 µM (inactive)
GI50 (M14): 22.1 µM (inactive)
GI50 (MCF7): 43.1 µM (inactive)
GI50 (MDA-MB-231): 44.8 µM (inactive)
GI50 (MDA-MB-435): 26.2 µM (inactive)
GI50 (MDA-N): 36.9 µM (inactive)
GI50 (MOLT-4): 21.1 µM (inactive)
GI50 (Malme-3M): 20.8 µM (inactive)
GI50 (NCI-H226): 22.2 µM (inactive)
GI50 (NCI-H23): 21.8 µM (inactive)
GI50 (NCI-H460): 20.3 µM (inactive)
GI50 (NCI-H522): 22.1 µM (inactive)
GI50 (NCI/ADR-RES): 29.2 µM (inactive)
GI50 (OVCAR-3): 31.3 µM (inactive)
GI50 (OVCAR-4): 19.3 µM (inactive)
GI50 (OVCAR-5): > 100 µM (inactive)
GI50 (OVCAR-8): 47.6 µM (inactive)
GI50 (RPMI-8226): 30 µM (inactive)
GI50 (RXF 393): 4.28 µM (inactive)
GI50 (SF-268): 34.7 µM (inactive)
GI50 (SF-295): 37.2 µM (inactive)
GI50 (SF-539): 21 µM (inactive)
GI50 (SK-MEL-28): 29 µM (inactive)
GI50 (SK-MEL-2): 34.8 µM (inactive)
GI50 (SK-MEL-5): 22.2 µM (inactive)
GI50 (SK-OV-3): 39.4 µM (inactive)
GI50 (SN12C): 38.2 µM (inactive)
GI50 (SNB-75): 19 µM (inactive)
GI50 (SR): 35.8 µM (inactive)
GI50 (SW-620): 46 µM (inactive)
GI50 (T47D): 27.7 µM (inactive)
GI50 (TK-10): 27.6 µM (inactive)
GI50 (U-251): 37 µM (inactive)
GI50 (UACC-257): 26.2 µM (inactive)
GI50 (UACC-62): 43.7 µM (inactive)
GI50 (UO-31): 26.7 µM (inactive)

From ChEMBL document CHEMBL1201862, “PubChem BioAssay data set” (2004)
